# From patent publication US8309550B2, “Kinase inhibitors and their use as pharmaceutical agents” (Shanghai Genomics, Inc., priority 2011, dated 2012)
# What was measured:
# CDK1/cyclinB = molecular target: T1, CDK1/cyclinB (Homo sapiens, UniProt P06493); assay: Z'-LYTE kinase assay CDK1/cyclinB; format: biochemical; settings: read-out: Kinase inhibition, IC50 CDK1B
# T1 construct: purchased Invitrogen PV3292
# Experimental: (§1) Kinase assays. The compounds from the example above were tested for their ability to inhibit kinases. Recombinant human CDK2/cyclinA (PV3267), CDK1/cyclinB (PV3292), CDK5/p35 (PV3000) and Aurora A (PV3612) were purchased from Invitrogen (Carlsbad, Calif., USA). Kinase dosage and Z′-LYTE™ substrate for each kinase assay is as follows: CDK2/cyclinA-8 ng/reaction, Ser/Thr 12 Peptide; CDK1/cyclinB-0.8 ng/reaction, Ser/Thr 12 Peptide, CDK5/p35-0.8 ng/reaction, Ser/Thr 12 Peptide, and Aurora A-16 ng/reaction, Ser/Thr 1 Peptide. All enzymatic assays were performed using Z′-LYTE™ Kinase Assay Kits and were carried out following protocols provided by Invitrogen. To prepare stock solutions, compounds were dissolved at 10 mM in 100% DMSO and stored at 4° C. in amber glass vials. Enzyme reactions were initiated by adding recombinant enzyme and Z′-LYTE™ Ser/Thr peptide substrate and ATP mixture to 384-well plates containing diluted test compounds. Kinase and corresponding peptide substrate were incubated for 1 hr at room temperature in the presence of varying amounts of test compound with reaction buffer (20 μM ATP, […] [pH 7.5], 5 mM MgCl2, 0.5 mM EGTA, 0.005% Brij-35). Development buffer was added and incubated for another one hour at room temperature. Reactions were terminated by addition of stop buffer, and fluorescence emission intensity ratio 445 nm/520 nm (excited at 400 nm) was quantified by VICTOR-3 Multilabel Reader (Perkin-Elmer, Waltham, Mass., USA). Phosphorylation was calculated from the emission ratio. IC50 was determined using Sigmoid curve-fitting software Origin 6.0 (MicroCal, LLC, Northampton, Mass., USA).
# CDK2/cyclinA = molecular target: T2, CDK2/cyclinA (Homo sapiens, UniProt P24941); assay: Z'-LYTE kinase assay CDK2/cyclinA; format: biochemical; settings: read-out: Kinase inhibition, IC50 CDK2A
# T2 construct: purchased Invitrogen PV3267
# Experimental: as §1
# CDK5/p35 = molecular target: T3, CDK5/p35 (Homo sapiens, UniProt Q00535); assay: Z'-LYTE kinase assay CDK5/p35; format: biochemical; settings: read-out: Kinase inhibition, IC50 CDK5/p35
# T3 construct: purchased Invitrogen PV3000
# T3 sequence (Q00535 whole entry): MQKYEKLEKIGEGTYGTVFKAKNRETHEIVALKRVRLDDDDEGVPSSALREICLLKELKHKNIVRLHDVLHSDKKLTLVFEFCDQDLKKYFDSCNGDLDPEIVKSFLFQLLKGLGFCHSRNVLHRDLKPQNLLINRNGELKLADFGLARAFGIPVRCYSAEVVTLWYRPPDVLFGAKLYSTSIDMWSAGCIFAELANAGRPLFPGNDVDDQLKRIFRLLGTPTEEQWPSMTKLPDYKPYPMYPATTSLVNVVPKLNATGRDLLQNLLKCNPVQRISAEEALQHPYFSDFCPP
# T3 sequence (Q15078 whole entry partner): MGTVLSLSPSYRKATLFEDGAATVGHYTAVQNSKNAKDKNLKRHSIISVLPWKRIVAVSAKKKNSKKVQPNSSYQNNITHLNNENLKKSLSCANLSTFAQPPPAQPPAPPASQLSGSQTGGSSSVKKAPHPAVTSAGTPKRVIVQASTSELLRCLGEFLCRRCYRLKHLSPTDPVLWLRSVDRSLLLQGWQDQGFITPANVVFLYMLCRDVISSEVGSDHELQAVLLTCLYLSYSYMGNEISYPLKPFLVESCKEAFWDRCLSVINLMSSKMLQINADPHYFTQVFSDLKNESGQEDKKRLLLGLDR
# Experimental: as §1
# CDK9T1 = CDK9T1 (Homo sapiens, UniProt P50750); assay: Kinase assay CDK9T1 (Table I); format: biochemical; settings: read-out: Kinase inhibition, IC50 CDK9T1
# Chain of CDK9T1 (P50750 whole entry): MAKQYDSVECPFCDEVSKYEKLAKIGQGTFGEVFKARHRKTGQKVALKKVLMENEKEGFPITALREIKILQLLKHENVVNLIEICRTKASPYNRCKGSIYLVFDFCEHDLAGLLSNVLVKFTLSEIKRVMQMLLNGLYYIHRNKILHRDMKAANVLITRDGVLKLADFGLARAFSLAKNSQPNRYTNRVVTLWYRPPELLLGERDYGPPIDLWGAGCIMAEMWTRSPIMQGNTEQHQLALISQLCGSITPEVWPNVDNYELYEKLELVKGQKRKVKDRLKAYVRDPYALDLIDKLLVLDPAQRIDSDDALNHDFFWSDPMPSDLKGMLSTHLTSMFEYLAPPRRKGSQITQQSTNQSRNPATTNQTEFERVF
# Chain of CDK9T1 (O60563 whole entry partner): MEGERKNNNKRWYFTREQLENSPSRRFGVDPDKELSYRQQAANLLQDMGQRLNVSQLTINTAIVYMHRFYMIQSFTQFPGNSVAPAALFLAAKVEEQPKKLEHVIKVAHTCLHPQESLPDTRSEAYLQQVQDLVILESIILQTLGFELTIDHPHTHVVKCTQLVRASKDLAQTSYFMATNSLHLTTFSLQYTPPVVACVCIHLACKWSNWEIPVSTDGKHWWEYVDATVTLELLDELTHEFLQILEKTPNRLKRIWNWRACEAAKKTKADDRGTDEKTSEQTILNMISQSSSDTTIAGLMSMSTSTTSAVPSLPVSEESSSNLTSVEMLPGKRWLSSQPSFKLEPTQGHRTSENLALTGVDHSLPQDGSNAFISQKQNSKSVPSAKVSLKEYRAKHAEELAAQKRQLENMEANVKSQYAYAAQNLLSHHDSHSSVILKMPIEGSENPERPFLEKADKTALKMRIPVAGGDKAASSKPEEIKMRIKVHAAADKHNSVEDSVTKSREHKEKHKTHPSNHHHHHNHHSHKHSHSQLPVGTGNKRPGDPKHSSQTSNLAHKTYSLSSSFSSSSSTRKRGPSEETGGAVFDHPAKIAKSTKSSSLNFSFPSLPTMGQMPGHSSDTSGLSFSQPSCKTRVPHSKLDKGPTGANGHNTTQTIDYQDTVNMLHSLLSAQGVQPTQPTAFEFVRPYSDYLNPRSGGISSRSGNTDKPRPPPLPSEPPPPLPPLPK
# Experimental: [The source words this procedure for another target and reports this target under the same test.] as §1
# Aurora A = molecular target: T4, Aurora A (Homo sapiens, UniProt O14965); assay: Z'-LYTE kinase assay Aurora A; format: biochemical; settings: read-out: Kinase inhibition, IC50 Aurora A
# T4 construct: purchased Invitrogen PV3612
# T4 sequence (O14965 1-403): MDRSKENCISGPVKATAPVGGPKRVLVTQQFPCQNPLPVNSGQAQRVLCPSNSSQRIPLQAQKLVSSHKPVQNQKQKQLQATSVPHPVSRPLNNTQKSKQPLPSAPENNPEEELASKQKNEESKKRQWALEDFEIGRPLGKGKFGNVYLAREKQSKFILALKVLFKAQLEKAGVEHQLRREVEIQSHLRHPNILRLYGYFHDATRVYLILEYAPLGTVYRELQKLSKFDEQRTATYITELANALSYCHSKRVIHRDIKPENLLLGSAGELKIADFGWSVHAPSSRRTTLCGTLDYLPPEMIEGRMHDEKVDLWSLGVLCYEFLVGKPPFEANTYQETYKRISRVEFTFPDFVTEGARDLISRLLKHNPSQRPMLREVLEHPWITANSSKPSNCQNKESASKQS
# Experimental: as §1
# Aurora B = Aurora B (Homo sapiens, UniProt Q96GD4); assay: Kinase assay Aurora B (Table I); format: biochemical; settings: read-out: Kinase inhibition, IC50 Aurora B
# Chain of Aurora B (Q96GD4 whole entry): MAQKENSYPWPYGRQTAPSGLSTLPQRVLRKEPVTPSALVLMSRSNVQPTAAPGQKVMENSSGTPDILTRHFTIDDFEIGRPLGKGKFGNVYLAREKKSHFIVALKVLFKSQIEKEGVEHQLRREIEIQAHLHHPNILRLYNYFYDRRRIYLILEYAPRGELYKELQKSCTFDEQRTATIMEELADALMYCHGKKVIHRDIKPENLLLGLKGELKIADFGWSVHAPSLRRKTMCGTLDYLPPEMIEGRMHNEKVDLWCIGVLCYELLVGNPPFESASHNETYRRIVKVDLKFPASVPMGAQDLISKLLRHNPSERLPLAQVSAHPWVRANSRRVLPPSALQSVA
# Experimental: [The source words this procedure for another target and reports this target under the same test.] as §1
# HeLa cells = assay: 72 h MTT cytotoxicity assay HeLa; format: cell-based; settings: Homo sapiens
# Source text: (§2) MIT cytotoxicity assay. The compounds of the invention were subjected to a standard cellular proliferation assay using human cell lines. HeLa cells (Human cervix adenocarcinoma cell line, ATCC NO, CCL-2); A549 cells (Human lung carcinoma cells line, ATCC NO, CCL-185); U2OS cells (Human osteosarcoma cell line, ATCC NO, HTB-96); Eca-109 cells (Human esophageal carcinoma cell line); HepG2 (Human hepatocellular liver carcinoma cell line, ATCC NO, HB-8065); K562 cells (Human chronic myelogenous leukemia cell line, ATCC NO, CCL-243); SK-MEL-28 (Human malignant melanoma cell line, ATCC NO, HTB-72); Molt-4 (Human acute lymphoblastic leukemia cell line, ATCC NO, CRL-1582); H460 (Human large cell lung cancer cell line, ATCC NO, HTB-177); MDA-MB-231 (Human breast adenocarcinoma cell line, ATCC NO, HTB-26); MCF7 (Human breast adenocarcinoma cell line, ATCC NO, HTB-22); ACHN (Human renal cell adenocarcinoma cell line, ATCC NO, CRL-1611); PC-3M (Human prostate adenocarcinoma cell line, ATCC NO CRL-1435); HL60 (Human acute promyelocytic leukemia cell line, ATCC NO, CCL-240); THP-1 (Human acute monocytic leukemia, ATCC NO, TIB-202); Jurkat (Human acute T cell leukemia cell line, ATCC NO, CRL-2063); HCT-116 (Human colorectal carcinoma cell line, ATCC NO, CCL-247); HT-29 (Human colorectal adenocarcinoma cell line, ATCC NO, HTB-38™); WI-38 (Human normal lung cell line, ATCC NO, CCL-75); MRC-5 (Human normal lung cell line, ATCC NO, CCL-171).
# (§3) HepG2, MDA-MB-231, WI-38 and MRC-5 cells were obtained from Shanghai Institute of Cell Biology, Chinese Academy of Sciences (Shanghai 200031, China). A549, HeLa, K562, MCF7, ACHN, H460, U2OS, Eca-109, MCF7, HL60, THP-1, Jurkat, HCT-116, HT-29, PC-3M, SK-MEL-28, Molt-4, H460 and […] cells were purchased from ATCC (American Type Culture Collection, USA).
# (§4) Standard 72 h MTT (thiazolye blue; 3-[4,5-dimethylthiazol-2-yl]-2,5-diphenyltetrazolium bromide) assays were performed. Briefly, the cell lines used in this study were recovered and cultured according to the conditions recommended. 4000 cells per well were seeded into 96-well plates according to doubling time and incubated overnight at 37° C. Compounds were prepared in DMSO and a ½ dilution series in 100 μl cell culture media, added to cells (in duplicates) with the final DMSO concentration of 0.025%, and incubated for 72 hrs at 37° C. MTT solution (5 mg/ml) was added at 10 μl per well and incubated in the dark at 37° C. for 4 hr. Culture medium and MTT solution was removed. MTT dye was solubilised with 100 μl per well of DMSO with agitation. Absorbance was read at 562 nm and data analyzed using Sigmoid curve-fitting software Origin 6.0 (MicroCal, LLC, USA) to determine IC50 value.
# A549 cells = assay: 72 h MTT cytotoxicity assay A549; format: cell-based; settings: Homo sapiens; A549, 72 hrs
# Source text: as §2, §3, §4
# U2OS cells = assay: 72 h MTT cytotoxicity assay U2OS; format: cell-based; settings: Homo sapiens
# Source text: as §2, §3, §4
# Eca-109 cells = assay: 72 h MTT cytotoxicity assay Eca-109; format: cell-based; settings: Homo sapiens; Eca-109, 72 hrs
# Source text: as §2, §3, §4
# HepG2 = assay: 72 h MTT cytotoxicity assay HepG2; format: cell-based; settings: Homo sapiens; HepG2, 72 hrs
# Source text: as §2, §3, §4
# K562 cells = assay: 72 h MTT cytotoxicity assay K562; format: cell-based; settings: Homo sapiens; K562, 72 hrs
# Source text: as §2, §3, §4
# MCF7 = assay: 72 h MTT cytotoxicity assay MCF7; format: cell-based; settings: Homo sapiens; MCF7, 72 hrs
# Source text: as §2, §3, §4
# SK-MEL-28-luc = assay: 72 h MTT cytotoxicity assay SK-MEL-28-luc; format: cell-based; settings: Homo sapiens
# Source text: as §2, §3, §4
# Molt-4-luc = assay: 72 h MTT cytotoxicity assay Molt-4-luc; format: cell-based; settings: Homo sapiens
# Source text: as §2, §3, §4
# H460-luc = assay: 72 h MTT cytotoxicity assay H460-luc; format: cell-based; settings: Homo sapiens, NCI-H460-Luc; H460-luc, 72 hrs; read-out: Cytotoxicity, MTT 72 hrs, IC50 H460-luc
# Source text: as §2, §3, §4
# MDA-MB-231-luc = assay: 72 h MTT cell viability MDA-MB-231-luc; format: cell-based; settings: Homo sapiens
# Source text: as §2, §3, §4
# ACHN-luc = assay: 72 h MTT cell viability ACHN-luc; format: cell-based; settings: Homo sapiens
# Source text: as §2, §3, §4
# WI-38 = assay: 72 h MTT cell viability WI-38 (normal lung); format: cell-based; settings: Homo sapiens; WI-38, normal lung cell line
# Source text: as §2, §3, §4
# PC-3M-luc = assay: 72 h MTT cell viability PC-3M-luc; format: cell-based; settings: Homo sapiens
# Source text: as §2, §3, §4
# HL-60 = assay: 72 h MTT cell viability HL-60; format: cell-based; settings: Homo sapiens
# Source text: as §2, §3, §4
# THP-1 = assay: 72 h MTT cell viability THP-1; format: cell-based; settings: Homo sapiens, THP-1; read-out: Cell Viability IC50 THP-1
# Source text: as §2, §3, §4
# T1 sequence (P06493 whole entry): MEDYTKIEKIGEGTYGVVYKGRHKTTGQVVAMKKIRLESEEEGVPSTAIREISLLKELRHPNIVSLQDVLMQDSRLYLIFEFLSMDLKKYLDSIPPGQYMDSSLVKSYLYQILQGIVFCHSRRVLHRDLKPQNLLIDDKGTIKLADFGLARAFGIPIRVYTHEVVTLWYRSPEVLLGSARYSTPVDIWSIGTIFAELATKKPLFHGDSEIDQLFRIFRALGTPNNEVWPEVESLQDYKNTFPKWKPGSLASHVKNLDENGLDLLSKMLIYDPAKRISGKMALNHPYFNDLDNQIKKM
# T1 sequence (P14635 whole entry partner): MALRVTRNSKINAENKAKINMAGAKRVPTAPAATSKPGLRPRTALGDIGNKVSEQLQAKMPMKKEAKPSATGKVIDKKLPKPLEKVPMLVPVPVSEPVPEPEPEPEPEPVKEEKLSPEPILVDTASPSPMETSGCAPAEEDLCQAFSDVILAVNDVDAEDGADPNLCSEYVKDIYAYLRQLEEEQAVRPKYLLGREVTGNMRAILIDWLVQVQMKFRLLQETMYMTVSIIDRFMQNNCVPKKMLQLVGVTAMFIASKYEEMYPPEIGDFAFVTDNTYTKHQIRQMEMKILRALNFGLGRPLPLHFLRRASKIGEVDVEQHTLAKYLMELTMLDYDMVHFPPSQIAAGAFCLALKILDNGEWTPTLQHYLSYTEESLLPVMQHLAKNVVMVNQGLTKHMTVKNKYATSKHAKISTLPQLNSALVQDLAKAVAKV
SMILES,IC50 (CDK1/cyclinB),IC50 (CDK2/cyclinA),IC50 (CDK5/p35),IC50 (CDK9T1),IC50 (Aurora A),IC50 (Aurora B),IC50 (HeLa cells),IC50 (A549 cells),IC50 (U2OS cells),IC50 (Eca-109 cells),IC50 (HepG2),IC50 (K562 cells),IC50 (MCF7),IC50 (SK-MEL-28-luc),IC50 (Molt-4-luc),IC50 (H460-luc),IC50 (MDA-MB-231-luc),IC50 (ACHN-luc),IC50 (WI-38),IC50 (PC-3M-luc),further results
"Cn1cc(-c2ccnc(Nc3ccc(O)cc3)n2)c2ccccc21 [Compound 2, 4-(4-(1-Methyl-1H-indol-3-yl)pyrimidin-2-ylamino)phenol]",742 nM,305 nM,950 nM,43 nM,150 nM,200 nM,4930 nM,8290 nM,7330 nM,14500 nM,5970 nM,6170 nM,9560 nM,6370 nM,6300 nM,6390 nM,6160 nM,23400 nM,> 10000 nM,,
"CCCn1cc(-c2ccnc(Nc3ccc(S(N)(=O)=O)cc3)n2)c2nc(Cl)cc(C)c21 [Compound 39, 4-(4-(5-Chloro-7-methyl-1-propyl-1H-pyrrolo[3,2-b]pyridin-3-yl)pyrimidin-2-ylamino)benzenesulfonamide]",> 10000 nM,1670 nM,> 10000 nM,57 nM,620 nM,320 nM,3300 nM,420 nM,1260 nM,3700 nM,100 nM,4720 nM,> 10000 nM,3410 nM,5250 nM,1030 nM,2030 nM,13700 nM,,> 10000 nM,IC50 (HL-60): 1270 nM
"CCn1cc(-c2ccnc(Nc3cccc(S(N)(=O)=O)c3)n2)c2ccnc(Cl)c21 [Compound 73, 3-(4-(7-Chloro-1-ethyl-1H-pyrrolo[2,3-c]pyridin-3-yl)pyrimidin-2-ylamino)benzenesulfonamide]",180 nM,3.8 nM,190 nM,24 nM,1280 nM,,,370 nM,410 nM,> 10000 nM,180 nM,,,490 nM,430 nM,315 nM,440 nM,510 nM,> 10000 nM,890 nM,IC50 (HL-60): 430 nM; IC50 (THP-1): 2740 nM
